Data as given in PMC4048319, “Design and Synthesis of High Affinity Inhibitors of Plasmodium falciparum and Plasmodium vivax N-Myristoyltransferases Directed by Ligand Efficiency Dependent Lipophilicity (LELP)” (Journal of Medicinal Chemistry, 2014).

Experiments:
[1] = biological target: T1, PfNMT (Plasmodium falciparum, UniProt Q9U419); assay: LELP (cLogP/LE, PfNMT LE)
T1 sequence (Q9U419 1-410): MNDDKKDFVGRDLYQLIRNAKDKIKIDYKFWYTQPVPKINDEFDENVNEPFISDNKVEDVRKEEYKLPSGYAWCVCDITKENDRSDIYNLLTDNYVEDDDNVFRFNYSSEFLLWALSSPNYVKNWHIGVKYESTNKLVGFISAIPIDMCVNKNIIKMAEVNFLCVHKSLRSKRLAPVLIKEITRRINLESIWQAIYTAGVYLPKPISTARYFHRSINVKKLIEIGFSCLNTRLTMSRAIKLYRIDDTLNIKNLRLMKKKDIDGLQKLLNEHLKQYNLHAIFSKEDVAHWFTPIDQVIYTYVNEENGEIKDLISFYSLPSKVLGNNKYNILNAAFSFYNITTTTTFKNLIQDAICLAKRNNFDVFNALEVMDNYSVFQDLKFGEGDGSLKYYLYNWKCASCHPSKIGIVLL

[2] = biological target: T1, PfNMT; assay: NMT enzyme inhibition, CPM fluorescence assay (PfNMT); type: biochemical; conditions: for Ki: Ki calculated from IC50 by Cheng-Prusoff, mean of two or more determinations, read-out: PfNMT Ki
Procedure: (§1) All IC50 determinations were carried out using a 7-diethylamino-3-(4′-maleimidylphenyl)-4-methylcoumarin (CPM) fluorescence assay, as described previously for HsNMT1,[45] PvNMT,[46] and PfNMT.[21]
(§2) IC50 values are the mean value of two or more determinations, and standard deviation is within 20% of the IC50 unless otherwise specified. Data were elaborated using Microsoft Office Excel 2010, and IC50 values were determined using GraFit 7.0 (Erithacus Software Ltd., U.K.) by nonlinear regression fitting, which were then quoted as Ki as defined below.
(§3) The Michaelis constant (Km) was 3.64 μM and the substrate concentration was 4.00 μM, resulting in a Ki of 0.008 μM. Km values were calculated as described previously.[45]

[3] = Aqueous solubility; type: physicochemical; conditions: data not shown
[4] = biological target: T2, PvNMT (Plasmodium vivax, UniProt A5K1A2); assay: NMT enzyme inhibition, CPM fluorescence assay (PvNMT); type: biochemical; conditions: relative to 34c
T2 sequence (A5K1A2 1-410): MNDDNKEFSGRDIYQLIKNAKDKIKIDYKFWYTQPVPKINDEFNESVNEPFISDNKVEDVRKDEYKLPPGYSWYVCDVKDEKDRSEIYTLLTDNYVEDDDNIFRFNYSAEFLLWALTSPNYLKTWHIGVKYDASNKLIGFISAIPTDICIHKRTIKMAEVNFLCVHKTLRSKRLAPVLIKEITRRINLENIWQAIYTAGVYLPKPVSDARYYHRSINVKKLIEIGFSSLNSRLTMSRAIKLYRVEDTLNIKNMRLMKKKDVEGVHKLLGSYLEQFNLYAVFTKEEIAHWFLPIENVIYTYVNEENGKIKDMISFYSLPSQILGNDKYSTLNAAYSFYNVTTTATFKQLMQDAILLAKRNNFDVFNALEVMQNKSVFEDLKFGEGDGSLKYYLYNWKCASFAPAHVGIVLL
Procedure: as §1, §2, §3

[5] = biological target: T3, HsNMT1 (Homo sapiens, UniProt P30419); assay: NMT enzyme inhibition, CPM fluorescence assay (HsNMT1); type: biochemical; conditions: ratio of Ki
T3 sequence (P30419 1-496): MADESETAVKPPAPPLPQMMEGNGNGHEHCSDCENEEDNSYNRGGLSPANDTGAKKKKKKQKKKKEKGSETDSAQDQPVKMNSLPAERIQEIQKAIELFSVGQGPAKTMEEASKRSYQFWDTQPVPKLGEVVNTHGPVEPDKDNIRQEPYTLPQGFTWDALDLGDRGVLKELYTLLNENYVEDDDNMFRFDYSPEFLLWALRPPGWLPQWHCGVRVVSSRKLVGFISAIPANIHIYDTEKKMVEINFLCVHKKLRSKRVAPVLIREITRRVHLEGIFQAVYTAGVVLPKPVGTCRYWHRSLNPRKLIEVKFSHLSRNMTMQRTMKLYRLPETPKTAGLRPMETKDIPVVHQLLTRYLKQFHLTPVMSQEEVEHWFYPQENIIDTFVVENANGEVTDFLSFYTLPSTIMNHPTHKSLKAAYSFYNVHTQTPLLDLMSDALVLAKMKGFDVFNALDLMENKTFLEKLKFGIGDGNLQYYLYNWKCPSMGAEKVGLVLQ
Procedure: as §1, §2, §3

[6] = tested on: rodent malaria model; set-up: method as in PMID 24451586; conditions: previously shown; cited from earlier work
[7] = tested on: P. falciparum Dd2; assay: Plasmodium falciparum [3H]hypoxanthine incorporation assay (Dd2); type: cell-based; conditions: drug-resistant vs drug-sensitive line
Procedure: This assay was performed by Dr. Sergio Wittlin and Dr. Christian Scheurer at the Swiss Tropical and Public Health Institute and is a modified version of the original hypoxanthine assay published by Desjardins et al.:[47]
Serial drug dilutions were prepared with a multichannel pipet, transferring 100 μL in a 2-fold serial dilution. Wells of rows A served as controls without drug. An amount of 100 μL of infected blood (parasitemia of 0.3%, 2.5% hematocrit) was added to all wells with a multipipette. The control wells (A9–A12) received uninfected blood of 2.5% hematocrit. The plates were incubated in an incubation chamber at 37 °C in an atmosphere containing 93% N2, 4% CO2, 3% O2. After 48 h, an amount of 50 μL of [^3H]hypoxanthine (=0.5 μCi) solution was added to each well of the plate. The plates were incubated for another 24 h. The plates were then harvested with a Betaplate cell harvester (Wallac, Zurich, Switzerland). The dried filters were inserted into a plastic foil with 10 mL of scintillation fluid and counted in a Betaplate liquid scintillation counter (Wallac, Zurich, Switzerland). The results were recorded as counts per minute (cpm) per well at each drug concentration.
Data were analyzed using a graphic program (e.g., Excel) and expressed as percentage of the untreated controls. The 50% inhibitory concentration (IC50) value was evaluated by logit regression analysis.

[8] = biological target: PbNMT (Plasmodium berghei, UniProt A0A509ARF4); assay: PbNMT enzyme affinity; type: biochemical
Sequence of PbNMT (A0A509ARF4 entry or part of it): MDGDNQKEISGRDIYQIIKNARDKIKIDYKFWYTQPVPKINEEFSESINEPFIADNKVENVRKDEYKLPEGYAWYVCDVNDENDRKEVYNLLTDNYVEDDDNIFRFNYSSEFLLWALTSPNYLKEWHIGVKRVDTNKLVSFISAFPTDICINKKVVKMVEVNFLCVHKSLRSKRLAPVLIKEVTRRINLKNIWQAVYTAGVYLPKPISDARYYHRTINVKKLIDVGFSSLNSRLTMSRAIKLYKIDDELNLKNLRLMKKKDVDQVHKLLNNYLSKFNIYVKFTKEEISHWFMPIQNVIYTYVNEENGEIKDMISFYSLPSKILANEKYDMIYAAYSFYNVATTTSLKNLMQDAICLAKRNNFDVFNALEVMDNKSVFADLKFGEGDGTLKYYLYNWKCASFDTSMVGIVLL
Procedure: In addition, 34c was tested against a Plasmodium berghei (Pb) liver stage model to determine whether NMT is likely to be a viable drug target for clearance of liver stage parasites. […] This provides evidence that NMT inhibition is also a promising mechanism for targeting liver stage parasites and may therefore be an effective pathway for the disruption of multiple parasite life stages.

[9] = cLogP determined with ChemAxon
[10] = tested on: HepG2 cells; assay: in vitro; type: cell-based
[11] = in vitro; type: cell-based; conditions: human
[12] = set-up: method as in PMID 24451586; conditions: previously reported; cited from earlier work

SMILES | LELP [1] | further results
O=C(OCCc1ccccc1)c1sc2ccccc2c1OC1CCNCC1 [4a] | 14.3 | –
COc1cc(CCOC(=O)c2sc3ccccc3c2OC2CCNCC2)cc(OC)c1 [4c] | 12.4 | –
O=C(NCCc1ccccc1)c1sc2ccccc2c1OC1CCNCC1 [6a] | – | Ki [2]: > 10 µM
O=C(NCCCc1ccccc1)c1sc2ccccc2c1OC1CCNCC1 [6b] | – | Ki [2]: > 10 µM
O=C(NCCOc1ccccc1)c1sc2ccccc2c1OC1CCNCC1 [6c] | – | Ki [2]: > 10 µM
c1ccc(Cc2noc(-c3sc4ccccc4c3OC3CCNCC3)n2)cc1 [9a, 3-Benzyl-5-(3-(piperidin-4-yloxy)benzo[b]thiophen-2-yl)-1,2,4-oxadiazole] | 12.4 | –
c1ccc(CCc2noc(-c3sc4ccccc4c3OC3CCNCC3)n2)cc1 [9b, 3-Phenethyl-5-(3-(piperidin-4-yloxy)benzo[b]thiophen-2-yl)-1,2,4-oxadiazole] | 15.2 | –
COc1cccc(Cc2noc(-c3sc4ccccc4c3OC3CCNCC3)n2)c1 [9c] | 12.5 | –
Clc1cccc(Cc2noc(-c3sc4ccccc4c3OC3CCNCC3)n2)c1 [9d] | 15.3 | –
COc1cc(Cc2noc(-c3sc4ccccc4c3OC3CCNCC3)n2)cc(OC)c1 [9e] | 11.8 | solubility [3]: very low
c1ccc(Cc2nc(-c3sc4ccccc4c3OC3CCNCC3)no2)cc1 [14a] | 12.8 | –
COc1cccc(Cc2nc(-c3sc4ccccc4c3OC3CCNCC3)no2)c1 [14b, 5-(3-Methoxybenzyl)-3-(3-(piperidin-4-yloxy)benzo[b]thiophen-2-yl)-1,2,4-oxadiazole] | 12.4 | –
COc1cccc(Cc2nnc(-c3sc4ccccc4c3OC3CCNCC3)o2)c1 [20b] | 9.2 | –
CC(C)(c1ccccc1)c1nnc(-c2sc3ccccc3c2OC2CCNCC2)o1 [23b] | 14.1 | –
c1ccc(C(c2ccccc2)c2nnc(-c3sc4ccccc4c3OC3CCNCC3)o2)cc1 [23e] | 19.4 | –
OC(c1ccccc1)c1nnc(-c2sc3ccccc3c2OC2CCNCC2)o1 (stereo not drawn) [23g] | 7.9 | –
Cc1noc(C)c1Cc1nnc(-c2sc3ccccc3c2OC2CCNCC2)o1 [34b] | 6.1 | selectivity between PfNMT and HsNMT [5]: 8- to 9 fold
Cc1nn(C)c(C)c1CCc1nnc(-c2sc3ccccc3c2OC2CCNCC2)o1 [35c] | 8.2 | –
O=C1C(O)=C([C@H]2CC[C@H](c3ccc(Cl)cc3)CC2)C(=O)c2ccccc21 [compound 37, atovaquone, reference compound] | – | HepG2 LD50 ([10]; human, 72 h): >10 000 nM

Now from value to molecule, other results behind:

LELP [1] | SMILES | further results
13.2 | COc1cccc(CCOC(=O)c2sc3ccccc3c2OC2CCNCC2)c1 [4b, 3-Methoxyphenethyl 3-(Piperidin-4-yloxy)benzo[b]thiophene-2-carboxylate] | improvement in enzyme affinity (PfNMT) relative to 1 [2]: 6 fold
18.6 | O=C(OCCCc1ccccc1)c1sc2ccccc2c1OC1CCNCC1 [4d] | –
14.1 | O=C(OCCOc1ccccc1)c1sc2ccccc2c1OC1CCNCC1 [4e] | –
11.8 | COc1cc(Cc2nc(-c3sc4ccccc4c3OC3CCNCC3)no2)cc(OC)c1 [14c] | –
9.5 | c1ccc(Cc2nnc(-c3sc4ccccc4c3OC3CCNCC3)o2)cc1 [20a] | –
12.5 | CC(c1ccccc1)c1nnc(-c2sc3ccccc3c2OC2CCNCC2)o1 (stereo not drawn) [23a, 2-(1-Phenylethyl)-5-(3-(piperidin-4-yloxy)benzo[b]thiophen-2-yl)-1,3,4-oxadiazole] | –
12.2 | c1ccc(C2(c3nnc(-c4sc5ccccc5c4OC4CCNCC4)o3)CC2)cc1 [23c] | –
13.8 | FC(F)(c1ccccc1)c1nnc(-c2sc3ccccc3c2OC2CCNCC2)o1 [23d] | –
10.5 | COC(c1ccccc1)c1nnc(-c2sc3ccccc3c2OC2CCNCC2)o1 (stereo not drawn) [23f] | –
5.6 | Cc1n[nH]c(C)c1Cc1nnc(-c2sc3ccccc3c2OC2CCNCC2)o1 [34a] | lower binding affinity to PvNMT than 34c [4]: ~40 fold
5.5 | Cc1nn(C)c(C)c1Cc1nnc(-c2sc3ccccc3c2OC2CCNCC2)o1 [34c, 2-(3-(Piperidin-4-yloxy)benzo[b]thiophen-2-yl)-5-((1,3,5-trimethyl-1H-pyrazol-4-yl)methyl)-1,3,4-oxadiazole] | selectivity between PfNMT and HsNMT [5]: 8- to 9 fold; parasitemia in vivo [6]: reduce parasitemia in vivo; loss of potency between NF54 and Dd2 [7]: less than 4 fold; Ki [8]: 0.014 µM; reduction in lipophilicity relative to 1 [9]: 100 fold; HepG2 LD50 ([10]; human, 72 h): 12 300 nM; HepG2 LD50 (approximate) ([10]; human, 72 h): ~10 µM; selectivity between parasitic and HepG2 cell lines ([10]; up to): ~40 fold; EC50 at 72 h [11]: 12.3 µM; improvement in enzyme affinity (PfNMT) relative to 1 [2]: 100 fold; aqueous solubility [12]: > 8 mM
7.8 | Cc1n[nH]c(C)c1CCc1nnc(-c2sc3ccccc3c2OC2CCNCC2)o1 [35a] | –
7.9 | Cc1noc(C)c1CCc1nnc(-c2sc3ccccc3c2OC2CCNCC2)o1 [35b] | –
9.5 | c1ccc(Cc2n[nH]c(-c3sc4ccccc4c3OC3CCNCC3)n2)cc1 [compound 18] | –
